Laboratory results from ChEMBL document CHEMBL3779881, “Property Focused Structure-Based Optimization of Small Molecule Inhibitors of the Protein-Protein Interaction between Menin and Mixed Lineage Leukemia (MLL)” (J Med Chem, 2016).

Columns and labels:
[1] = Growth inhibition of Hoxa9/Meis1 transformed mouse bone marrow cells after 7 days by MTT assay; format: functional; settings: Bone marrow cell, 168 h
[2] = Growth inhibition of MLL-AF9 transformed mouse bone marrow cells after 7 days by MTT assay; format: functional; settings: Bone marrow cell, 168 h
[3] = molecular target: Menin/Histone-lysine N-methyltransferase MLL (Homo sapiens, UniProt O00255); test: Inhibition of menin-MLL interaction (unknown origin) after 1 hr by fluorescence polarization assay; format: protein assay
Menin/Histone-lysine N-methyltransferase MLL, sequence (O00255 whole entry): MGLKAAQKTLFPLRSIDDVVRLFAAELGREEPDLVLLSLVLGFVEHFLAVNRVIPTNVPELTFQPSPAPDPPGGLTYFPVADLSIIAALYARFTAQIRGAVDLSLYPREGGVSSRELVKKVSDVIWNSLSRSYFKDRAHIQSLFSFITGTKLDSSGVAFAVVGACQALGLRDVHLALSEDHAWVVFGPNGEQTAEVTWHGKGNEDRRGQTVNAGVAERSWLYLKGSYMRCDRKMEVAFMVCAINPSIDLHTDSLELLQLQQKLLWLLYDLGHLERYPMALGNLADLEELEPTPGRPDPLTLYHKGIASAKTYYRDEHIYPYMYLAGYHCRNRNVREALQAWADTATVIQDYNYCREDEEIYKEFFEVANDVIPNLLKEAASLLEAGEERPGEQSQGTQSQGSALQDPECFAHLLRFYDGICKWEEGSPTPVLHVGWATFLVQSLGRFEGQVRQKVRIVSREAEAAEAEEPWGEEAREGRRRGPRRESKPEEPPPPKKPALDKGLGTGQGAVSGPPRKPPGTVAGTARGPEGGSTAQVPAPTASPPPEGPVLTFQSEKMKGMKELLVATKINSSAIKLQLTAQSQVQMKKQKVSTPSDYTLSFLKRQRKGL
Menin/Histone-lysine N-methyltransferase MLL, sequence (Q03164 1-2718 partner limits assumed): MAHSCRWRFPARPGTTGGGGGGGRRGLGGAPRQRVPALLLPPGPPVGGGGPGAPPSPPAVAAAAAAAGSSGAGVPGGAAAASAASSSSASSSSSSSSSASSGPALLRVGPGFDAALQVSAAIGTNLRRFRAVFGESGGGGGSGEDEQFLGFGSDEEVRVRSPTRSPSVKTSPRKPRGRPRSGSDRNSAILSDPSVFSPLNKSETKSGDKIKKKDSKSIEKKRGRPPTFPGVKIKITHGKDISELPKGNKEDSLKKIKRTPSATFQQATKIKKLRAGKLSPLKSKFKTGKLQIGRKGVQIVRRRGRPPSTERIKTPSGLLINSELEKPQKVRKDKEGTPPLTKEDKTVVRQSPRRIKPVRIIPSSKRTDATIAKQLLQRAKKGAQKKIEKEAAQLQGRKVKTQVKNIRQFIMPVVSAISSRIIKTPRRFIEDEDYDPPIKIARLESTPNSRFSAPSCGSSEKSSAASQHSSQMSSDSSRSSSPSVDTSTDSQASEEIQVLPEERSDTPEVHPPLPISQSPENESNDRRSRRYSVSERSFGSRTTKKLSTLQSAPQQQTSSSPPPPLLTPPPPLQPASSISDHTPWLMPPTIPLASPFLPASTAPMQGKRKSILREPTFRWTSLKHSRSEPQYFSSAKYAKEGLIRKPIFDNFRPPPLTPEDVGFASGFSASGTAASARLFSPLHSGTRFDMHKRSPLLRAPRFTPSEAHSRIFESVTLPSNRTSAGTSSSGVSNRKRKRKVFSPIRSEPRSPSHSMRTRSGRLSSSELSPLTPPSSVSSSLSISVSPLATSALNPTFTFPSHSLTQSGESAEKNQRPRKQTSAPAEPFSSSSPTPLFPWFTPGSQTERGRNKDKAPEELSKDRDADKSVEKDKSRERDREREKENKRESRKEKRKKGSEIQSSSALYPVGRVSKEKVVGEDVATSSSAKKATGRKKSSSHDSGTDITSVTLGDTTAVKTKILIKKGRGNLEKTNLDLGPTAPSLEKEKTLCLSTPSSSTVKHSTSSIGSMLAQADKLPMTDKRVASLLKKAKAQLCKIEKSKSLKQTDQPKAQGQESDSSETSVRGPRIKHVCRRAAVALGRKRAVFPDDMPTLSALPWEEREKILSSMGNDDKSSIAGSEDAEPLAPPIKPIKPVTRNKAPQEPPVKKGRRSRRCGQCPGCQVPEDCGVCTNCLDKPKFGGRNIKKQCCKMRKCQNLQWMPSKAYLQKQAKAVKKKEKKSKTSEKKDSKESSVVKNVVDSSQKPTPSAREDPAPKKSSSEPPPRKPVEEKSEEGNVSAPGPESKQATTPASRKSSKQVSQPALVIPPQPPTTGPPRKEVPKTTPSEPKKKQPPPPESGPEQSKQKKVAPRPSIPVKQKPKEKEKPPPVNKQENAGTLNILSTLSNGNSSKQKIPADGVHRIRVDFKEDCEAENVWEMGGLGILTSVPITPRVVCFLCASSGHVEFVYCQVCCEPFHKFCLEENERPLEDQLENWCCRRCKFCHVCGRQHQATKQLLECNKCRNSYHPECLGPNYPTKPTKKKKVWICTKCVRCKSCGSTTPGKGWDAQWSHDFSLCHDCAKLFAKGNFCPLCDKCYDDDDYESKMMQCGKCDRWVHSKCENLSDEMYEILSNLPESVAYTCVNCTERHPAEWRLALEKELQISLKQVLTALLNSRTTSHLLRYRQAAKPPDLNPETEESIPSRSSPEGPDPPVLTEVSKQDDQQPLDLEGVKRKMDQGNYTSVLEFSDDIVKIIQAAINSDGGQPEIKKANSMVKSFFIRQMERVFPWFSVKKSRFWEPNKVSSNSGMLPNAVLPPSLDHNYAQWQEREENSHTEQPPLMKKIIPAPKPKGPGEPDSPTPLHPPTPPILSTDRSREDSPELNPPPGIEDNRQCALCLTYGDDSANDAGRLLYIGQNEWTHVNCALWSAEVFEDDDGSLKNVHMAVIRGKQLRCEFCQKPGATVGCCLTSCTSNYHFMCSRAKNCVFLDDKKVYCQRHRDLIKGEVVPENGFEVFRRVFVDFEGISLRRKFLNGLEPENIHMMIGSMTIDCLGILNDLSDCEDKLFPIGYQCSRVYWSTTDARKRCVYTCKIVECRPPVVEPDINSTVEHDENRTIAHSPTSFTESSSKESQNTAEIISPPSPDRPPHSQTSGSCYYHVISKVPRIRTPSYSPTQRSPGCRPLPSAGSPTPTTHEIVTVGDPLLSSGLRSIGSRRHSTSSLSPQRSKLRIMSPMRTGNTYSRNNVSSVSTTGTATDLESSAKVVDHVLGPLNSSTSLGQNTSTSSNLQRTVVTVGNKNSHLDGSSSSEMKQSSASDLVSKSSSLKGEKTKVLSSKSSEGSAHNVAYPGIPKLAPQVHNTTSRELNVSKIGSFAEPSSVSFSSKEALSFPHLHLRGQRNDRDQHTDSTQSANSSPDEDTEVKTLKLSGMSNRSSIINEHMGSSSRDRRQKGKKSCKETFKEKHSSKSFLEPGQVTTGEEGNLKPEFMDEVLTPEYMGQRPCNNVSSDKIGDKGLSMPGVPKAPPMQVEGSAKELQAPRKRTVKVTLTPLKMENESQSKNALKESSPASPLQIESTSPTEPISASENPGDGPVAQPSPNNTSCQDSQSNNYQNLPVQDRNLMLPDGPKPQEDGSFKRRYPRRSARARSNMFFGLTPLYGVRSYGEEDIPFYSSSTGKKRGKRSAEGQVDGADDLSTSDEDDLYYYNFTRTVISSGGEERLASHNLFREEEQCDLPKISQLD
Menin/Histone-lysine N-methyltransferase MLL, sequence (Q03164 2719-3969 partner limits assumed): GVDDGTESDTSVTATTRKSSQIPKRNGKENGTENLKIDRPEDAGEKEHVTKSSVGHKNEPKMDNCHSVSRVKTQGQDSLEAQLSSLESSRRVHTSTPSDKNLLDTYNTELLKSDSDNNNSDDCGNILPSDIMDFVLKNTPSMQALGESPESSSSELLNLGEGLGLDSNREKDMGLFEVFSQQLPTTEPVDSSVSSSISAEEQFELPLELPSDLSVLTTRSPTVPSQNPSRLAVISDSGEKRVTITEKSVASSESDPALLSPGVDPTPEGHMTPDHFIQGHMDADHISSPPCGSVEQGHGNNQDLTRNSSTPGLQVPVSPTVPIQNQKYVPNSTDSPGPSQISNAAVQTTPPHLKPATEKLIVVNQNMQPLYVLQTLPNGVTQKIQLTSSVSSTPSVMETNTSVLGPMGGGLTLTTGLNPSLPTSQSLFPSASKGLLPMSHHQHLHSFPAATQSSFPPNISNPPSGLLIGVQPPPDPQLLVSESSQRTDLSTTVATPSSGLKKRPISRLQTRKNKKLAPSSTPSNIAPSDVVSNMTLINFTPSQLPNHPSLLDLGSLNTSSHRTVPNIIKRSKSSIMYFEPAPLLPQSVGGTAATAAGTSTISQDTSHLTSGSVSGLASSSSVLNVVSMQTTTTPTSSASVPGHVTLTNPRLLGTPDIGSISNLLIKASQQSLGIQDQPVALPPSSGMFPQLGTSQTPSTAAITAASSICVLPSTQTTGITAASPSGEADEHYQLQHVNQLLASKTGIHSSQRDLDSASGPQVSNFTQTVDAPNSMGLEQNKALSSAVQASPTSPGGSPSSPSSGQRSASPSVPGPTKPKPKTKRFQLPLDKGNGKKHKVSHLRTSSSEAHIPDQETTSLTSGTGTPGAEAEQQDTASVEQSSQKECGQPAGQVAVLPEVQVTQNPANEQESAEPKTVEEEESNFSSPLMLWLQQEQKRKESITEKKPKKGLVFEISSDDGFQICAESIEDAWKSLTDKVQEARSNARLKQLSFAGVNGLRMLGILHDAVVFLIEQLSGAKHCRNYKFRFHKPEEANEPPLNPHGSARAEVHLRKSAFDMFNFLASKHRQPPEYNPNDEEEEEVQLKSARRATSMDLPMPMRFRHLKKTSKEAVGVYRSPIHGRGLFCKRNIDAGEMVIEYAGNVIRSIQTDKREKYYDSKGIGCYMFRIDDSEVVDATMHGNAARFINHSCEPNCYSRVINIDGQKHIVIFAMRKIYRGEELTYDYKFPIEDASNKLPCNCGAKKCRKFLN

Bone marrow cell = test: Selectivity index, ratio of GI50 for Hoxa9/Meis1 transformed mouse bone marrow cells to GI50 for MLL-AF9 transformed mouse bone marrow cells; format: functional
[4] = Half life in CD-1 mouse liver microsomes at 1 uM after 3 to 60 mins by LC-MS/MS analysis; format: ADME

| SMILES | GI50 [1] [nM] | GI50 [2] [nM] | IC50 [3] [nM] | RatioGI50 (Bone marrow cell) | t1/2 [4] [min] |
| --- | --- | --- | --- | --- | --- |
| Cc1c(CN2CCC(Nc3ncnc4sc(CC(F)(F)F)cc34)CC2)c(O)cc2c1cc(C#N)n2Cc1c[nH]nn1 | 10000 | 420 | 17 | 24 | 25 |
| CCOc1cc2[nH]c(C#N)cc2cc1CN1CCC(Nc2ncnc3sc(CC(F)(F)F)cc23)CC1 | 5300 | 450 | 47 | 12 | 11 |
| N#Cc1cc2cc(CN3CCC(Nc4ncnc5sc(CC(F)(F)F)cc45)CC3)c(F)cc2[nH]1 | > 12000 | 3000 | 109 | >4 | 9 |
| Cc1c(CN2CCC(Nc3ncnc4sc(CC(F)(F)F)cc34)CC2)ccc2c1cc(C#N)n2CCO | 5600 | 440 | 44 | 13 | 23 |
| Cc1c(CN2CCC(Nc3ncnc4sc(CC(F)(F)F)cc34)CC2)ccc2c1cc(C#N)n2Cc1c[nH]nn1 | 8000 | 250 | 23 | 32 | 59 |
| COc1cc2c(cc1CN1CCC(Nc3ncnc4sc(CC(F)(F)F)cc34)CC1)cc(C#N)n2Cc1cn[nH]c1 | 6700 | 290 | 24 | 23 | 35 |
| CO[C@H](CO)Cn1c(C#N)cc2cc(CN3CCC(Nc4ncnc5sc(CC(F)(F)F)cc45)CC3)ccc21 | 6900 | 660 | 37 | 11 | 5.2 |
| N#Cc1cc2cc(CN3CCC(Nc4ncnc5sc(CC(F)(F)F)cc45)CC3)ccc2n1CC(O)CO (racemic) | > 12000 | 3400 | 37 | >3.5 | > 60 |
| CC(C(N)=O)n1c(C#N)cc2cc(CN3CCC(Nc4ncnc5sc(CC(F)(F)F)cc45)CC3)ccc21 (stereo unspecified) | – | – | 244 | – | – |
| COc1cc2[nH]c(C#N)cc2cc1CN1CCC(Nc2ncnc3sc(CC(F)(F)F)cc23)CC1 | 16000 | 340 | 22 | 47 | 3.7 |
| COc1cc2c(cc(C#N)n2CC(N)=O)c(C)c1CN1CCC(Nc2ncnc3sc(CC(F)(F)F)cc23)CC1 | > 25000 | 420 | 37 | >60 | > 60 |
| Cc1c(CN2CCC(Nc3ncnc4sc(CC(F)(F)F)cc34)CC2)c(O)cc2c1cc(C#N)n2CCO | 10000 | 400 | 27 | 25 | 11 |
| Cc1c(CN2CCC(Nc3ncnc4sc(CC(F)(F)F)cc34)CC2)c(O)cc2c1cc(C#N)n2Cc1cn[nH]c1 | 13000 | 270 | 18 | 48 | 25 |
| COc1cc2c(cc(C#N)n2CCO)c(C)c1CN1CCC(Nc2ncnc3sc(CC(F)(F)F)cc23)CC1 | 15000 | 360 | 16 | 69 | 7.8 |
| CO[C@@H](CO)Cn1c(C#N)cc2cc(CN3CCC(Nc4ncnc5sc(CC(F)(F)F)cc45)CC3)ccc21 | 9700 | 360 | 40 | 27 | < 3 |
| N#Cc1cc2cc(CN3CCC(Nc4ncnc5sc(CC(F)(F)F)cc45)CC3)ccc2n1CCO | 6200 | 1100 | 35 | 5.6 | 18 |
